Data as given in PubChem BioAssay AID179 (DTP/NCI, 2004).
Several values for one entry are separate records, joined by “and”; a condition that tells them apart may be missing. Identical values can stand only once. Activity calls are given as the source filed them.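 Rule for the calls: active = compounds giving half or more protection of infected cells from virus-caused growth loss, again on retest; inactive = the rest.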 Where a SMILES comes first, the peptide text is derived from it. Bridges are numbered along the chain shown (N, C = ends). Roman numbers before positions name the chains, in order. The star is where a group is joined. Cbz = O=C(OCc1ccccc1)*

Test system: CEM cells HIV-1 protection, formazan growth assay
Assay: NCI AIDS Antiviral Assay
Details: for IC50: measured here: growth of uninfected CEM cells
Method in brief: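 Protection of CEM cells against HIV-1 was scored from cell growth (soluble formazan) across five concentrations, with parallel uninfected cells. Lack of protection may reflect toxicity.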

Compound | EC50 | IC50 | outcome
Cc1nc(C)c(N2CCN(S(N)(=O)=O)CC2)c(=O)[nH]1 | > 200 µM | > 200 µM | 
S=C1NC(/C=C/c2ccccc2)Nc2ccccc21 (stereo unspecified) | > 26.9 µM | > 26.9 µM | 
O=[N+]([O-])c1ccc(-n2nc3ccc4c(no[n+]4[O-])c3[n+]2[O-])c([N+](=O)[O-])c1 | > 20 µM | 0.407 µM | 
Nc1ncnc2c1nnn2C1C=CC(COS(N)(=O)=O)C1 (stereo unspecified) | > 200 µM | 43.7 µM | 
COc1ccc(C2S/C(=C\c3ccccc3O)C(=O)N2NC(=O)Cc2ccccc2)cc1 (stereo unspecified) | > 57.5 µM | > 57.5 µM | 
CCCCC(=O)[O-].N.N.N.N.N.[Co+3].[O-][Cl+3]([O-])([O-])[O-] |  |  | inactive
Cc1ccc(C(=O)Nc2ccc(S(=O)(=O)O)c3cc(S(=O)(=O)O)cc(S(=O)(=O)O)c23)cc1NC(=O)c1cccc(NC(=S)Nc2cccc(C(=O)Nc3cc(C(=O)Nc4ccc(S(=O)(=O)O)c5cc(S(=O)(=O)O)cc(S(=O)(=O)O)c45)ccc3C)c2)c1 | 100 µM | 537 µM | 
CCOC(=O)COc1ccc(OC)c2c1C(=O)CCC2 |  |  | inactive
CCOC(=O)C12c3[nH]c4ccccc4c3CCN1CC1=NOC(=O)C12 (stereo unspecified) | > 132 µM | > 132 µM | 
CCCc1cc(=O)oc2c3c(c4c(c12)OC(C)(C)[C@H](O)[C@H]4O)O[C@@H](C)[C@H](C)[C@@H]3O | > 200 µM | 115 µM | 
CCOC(=O)C(Cc1ccc(O)cc1)NC(=O)C(CSSCC(NC(=O)OCc1ccccc1)C(=O)NC(Cc1ccc(O)cc1)C(=O)OCC)NC(=O)OCc1ccccc1 (stereo not drawn) (I: Cbz-Cys-Tyr-OEt / II: Cbz-Cys-Tyr-OEt; disulfide I:1-II:1; configuration not given here) | > 100 µM | 15.5 µM | 
CC[C@@H]1ON(C)[C@H]2CN(C)C(=O)[C@@H]12 | > 200 µM | > 200 µM | 
CCC(C)C(NC(=O)C(N)CCC(=O)O)C(=O)NC(CCCCN)C(=O)NCC(=O)NC(C(=O)NC(C(=O)NC(CC(N)=O)C(=O)NC(CC(C)C)C(=O)NCC(=O)NC(CCCCN)C(=O)O)C(C)O)C(C)O (stereo unspecified) (H-EIKGTTNLGK-OH; configuration not given here) |  |  | inactive
CCOC(=O)C(C)(c1c(C)n(C)c2ccccc12)c1c(C)n(C)c2ccccc12 | > 200 µM | > 100 µM | 
CCN1CCC(O)(c2ccc(C)cc2)C(C(=O)c2ccc(C)cc2)C1 (stereo unspecified) | > 162 µM | 11.7 µM | 
COc1c(OC)c(N)c2cc(C)c(=O)c(C)cc2c1N | > 240 µM | 56.2 µM | 
CC1CNc2cccc3[nH]c(=S)n(c23)C1 (stereo unspecified) | > 200 µM | > 200 µM | 
CC12CC(=O)NC(=O)N1CCS2 (stereo unspecified) | 214 µM | 562 µM | 
O=C1C(NS(=O)(=O)c2ccccc2)=C(n2cnc3ccccc32)C(=O)c2ccccc21 | > 200 µM | 145 µM | 
CCCC(=O)O[C@H]1[C@@H](OC(C)=O)C/C(C)=C\[C@@H]2OC(=O)[C@]3(C)OC23[C@@H](O)C2C3(C)OC3CC(OC(C)=O)[C@@]21C (stereo partly specified) | > 117 µM | 32.4 µM | 
CC1OC(O[C@@H]2C=C3CC[C@@H]4[C@H](CC[C@]5(C)[C@@H](c6ccc(=O)oc6)CC[C@]45O)[C@@]3(C)CC2)C(O)C(OC2OC(CO)C(O)C(O)C2O)C1O (stereo partly specified) | > 0.02 µM | 0.00295 µM | 

Compound | EC50 | IC50 | outcome
C1CN(C23OC4(N5CCOCC5)C5C6CC(C7C6C4C72)C53)CCO1 (stereo unspecified) | > 200 µM | > 200 µM | 
CCCC(=O)NC(Nc1cc(C)ccn1)(C(=O)OCC)C(F)(F)F (stereo unspecified) | 105 µM | 501 µM | 
COc1cccc(C2=NC(C(C)C)CO2)c1 (stereo unspecified) | > 229 µM | > 229 µM | 
O=C(Nc1cc(Cl)cc(Cl)c1)/C(Cc1nc2ccccc2[nH]c1=O)=N/NC(=O)c1ccncc1 | > 132 µM | > 132 µM | 
CCOC(=O)C(CS)NC(=O)CCCCCCCC(=O)O (stereo unspecified) | > 100 µM | 79.4 µM | 
O=C(CSC(=S)N1CCOCC1)Nc1nc2c(s1)CCCC2 | > 72.4 µM | 61.7 µM | 
COC(=O)N[C@H](C(=O)NC(OCc1ccccc1)C1COC(C)(C)O1)C(C)O[Si](C)(C)C(C)(C)C (stereo partly specified) | > 70.8 µM | > 70.8 µM | 
COc1ccc2c3c([nH]c2c1)CCN(CCCC(=O)c1ccc(F)cc1)C3 | > 200 µM | 32.4 µM | 
COC(=O)Cc1c(-c2[nH]c3ccccc3c2CC(=O)OC)[nH]c2ccccc12 |  |  | inactive
O=C(CCCN1CCC2(CC1)CC(=O)N(N1CCOCC1)C2=O)c1ccccc1 | > 200 µM | > 200 µM | 
FC(F)(F)c1ccc(N=NN2CCCC2)cc1 | > 200 µM | 22.9 µM | 
O=c1cn[nH]c2ccccc12 | > 741 µM | > 741 µM | 
CC(C)C(O)C(=O)C(F)C(C)C (stereo unspecified) | > 1410 µM | > 1410 µM | 
C[C@@H](c1ccccc1)n1c(N)c(-c2ccccn2)c2ccc([N+](=O)[O-])cc2c1=O | > 200 µM | 24 µM | 
Cc1cc(=O)oc2cc(O)c(O)cc12 | > 200 µM | 27.5 µM | 
Cc1nc2ccccc2c(=O)n1NC(=O)c1ccccc1[N+](=O)[O-] | > 200 µM | > 200 µM | 
COc1cc(OC)c(C2c3cc4c(cc3OC(N3CCOCC3)C2C)OCO4)c(OC)c1 (stereo unspecified) | > 200 µM | 11.2 µM | 
N#CN=C(N)NC#N | > 1700 µM | > 1700 µM | 
CCCCCCC(O)C/C=C/CCCCCC/C(C(=O)OC)=C(/O)C(=O)OCC (stereo unspecified) | > 83.2 µM | > 83.2 µM | 
O=C(c1ccc(Cl)cc1)N(C(=S)OCc1ccccn1)c1ccccc1 | > 200 µM | 83.2 µM | 
COc1ccc(/C(=C/n2ccnc2)C(O)c2ccc(OC)c(OC)c2)cc1OC (stereo unspecified) | > 126 µM | > 126 µM | 

Compound | EC50 | IC50 | outcome
CCCCCCn1c(SCC)c2ccccc2c1-c1nc(F)nc(F)n1 | > 2.75 µM | > 2.75 µM | 
CCCCCCc1cc(S(=O)(=O)O)c(O)cc1O | > 200 µM | > 200 µM | 
CN=c1sc2c(n1C)C(=O)c1ccccc1C2=O | > 200 µM | 9.33 µM | 
COC(=O)CC1(C(=O)OC)C2CCCN2C2(C#N)c3ccccc3CCC12Br (stereo unspecified) | > 41.7 µM | > 41.7 µM | 
CN(C)C=Nc1ccc2[nH]c3ccccc3c2c1 | > 200 µM | 107 µM | 
CC(=O)NC1C(=O)N([C@H](COCc2ccccc2)c2ccccc2)[C@@H]1COC(C)(C)C (stereo partly specified) | > 295 µM | 186 µM | 
CC(C(=O)NCCNC(=O)CCC(=O)N(C)O)C(=O)NCCNC(=O)CCC(=O)N(C)O | > 200 µM | 151 µM | 
CC(NCc1c(O)ccc2ccc(=O)oc12)C(=O)O (stereo unspecified) | > 200 µM | > 200 µM | 
C=CC(CCCCCCCC(=O)O)S(=O)(=O)O (stereo unspecified) | > 200 µM | > 200 µM | 
Cc1cc(O)c2c(=O)c(=O)c2c1 | > 1550 µM | 275 µM | 
O=c1c2ccccc2c2c1c1c3ccccc3c(=O)c1c1c3ccccc3c(=O)c21 | > 200 µM | > 200 µM | 
N#Cc1ccccc1NC(=O)C(=O)C(C(=O)c1ccccc1-c1ccccc1)C1OC(=O)c2ccccc21 (stereo unspecified) | > 52.5 µM | 26.3 µM | 
COC(=O)/C(C#N)=C(\N)c1c(C)c2ccccc2oc1=N | > 200 µM | > 200 µM | 
COC(=O)c1ccc(CCC2=CC(=O)C=CC2=O)cc1 | > 200 µM | 7.59 µM | 
O=C(O)c1nc2ccccc2nc1Nc1ccc(Cl)c(Cl)c1 | > 200 µM | 11.5 µM | 
CC(C)(C)OC(=O)N1CC(O)O[C@H](c2ccccc2)[C@@H]1c1ccccc1 (stereo partly specified) | > 200 µM | 32.4 µM | 
[N-]=[N+]=NC1=NNC2(C(=O)N1)c1ccccc1-c1ccccc12 | > 100 µM | > 100 µM | 
CCOC(=O)CCc1c(C)c2c(OC)cc(OC)cc2oc1=O |  |  | inactive
O=S(=O)(O)c1ccc(N=Nc2ccc(S(=O)(=O)O)cc2)cc1 |  |  | inactive
CN(C)CCSc1nnc(-c2cccs2)c2ccccc12 | > 794 µM | 40.7 µM | 
O=C(/C=C/c1cccc(Cl)c1)c1ccccc1 | > 11.2 µM | > 11.2 µM | 

Compound | EC50 | IC50 | outcome
COc1cc([C@@H]2CC3(C)OC(=O)C2CC3C)cc(OC)c1OC (stereo partly specified) | > 562 µM | > 562 µM | 
COc1cccc2c1OC(c1cccc3ccccc13)C([N+](=O)[O-])=C2 (stereo unspecified) | > 2 µM | 1.07 µM | 
CC(C)(C)c1ccccc1NS(=O)(=O)c1ccccc1 |  |  | inactive
CC1=C(C(=O)Nc2ccccc2)C(c2ccc(Cl)c(Cl)c2)C(C(=O)Nc2ccccc2)=C(C)N1 | > 10.7 µM | > 10.7 µM | 
CC1Cc2cc(OCc3ccccc3)cc(OCc3ccccc3)c2[C@H](C)N1Cc1ccccc1 (stereo partly specified) | > 200 µM | 14.5 µM | 
O=C(CC(O)(C(F)(F)F)C(F)(F)F)c1cccs1 | > 200 µM | > 200 µM | 
Cc1cc(N(CCC#N)CCC#N)ccc1N=Nc1ccc([N+](=O)[O-])cc1 | > 14.5 µM | > 14.5 µM | 
COc1cccc(NC(=O)CC(=O)NN)c1 | > 200 µM | > 200 µM | 
COC(=O)C(=O)C(/C=N/C(=S)Nc1ccc(S(=O)(=O)Nc2nccs2)cc1)=C(\O)c1c(C)[nH]c2ccccc12 | > 200 µM | 72.4 µM | 
O=C(O)c1cc(/C=C/c2ccc(N=Nc3c(O)cc(O)cc3C(=O)O)c(C(=O)O)c2)ccc1N=Nc1c(O)cc(O)cc1C(=O)O | 16.6 µM and 3.89 µM | > 100 µM and 95.5 µM | 
Nc1c(C(=O)O)sc2ncccc12 | 141 µM | 219 µM | 
Nc1ccccc1S(=O)c1ccccc1 (stereo unspecified) | > 275 µM | > 275 µM | 
C1CN2CCOB(O1)OCC2 | > 200 µM | > 200 µM | 
C[n+]1ccc(Nc2ccc(O)cc2)c2ccc(Cl)cc21 | > 603 µM | 11 µM | 
C=C[C@@H]1c2ccccc2C=C[C@]1(CCC1(C)OCCO1)C1=NC(C)(C)CO1 | > 70.8 µM | > 70.8 µM | 
CCOc1cnc([C@H]2CCC3[C@@H]4CC=C5C[C@@H](O)CC[C@]5(C)C4CC[C@@]32C)s1 (stereo partly specified) | > 61.7 µM | > 61.7 µM | 
O=C(O)c1ccc(CS(=O)(=O)c2ccc([N+](=O)[O-])cc2)cc1 | > 22.4 µM | > 22.4 µM | 
O=C([O-])c1ccc2c(c1)-c1nc-2nc2[n-]c(nc3nc(nc4[n-]c(n1)c1ccc(C(=O)[O-])cc41)-c1ccc(C(=O)[O-])cc1-3)c1ccc(C(=O)[O-])cc21.[Gd+3].[K+] | > 45.7 µM | > 45.7 µM | 
O=C1C(c2ccccc2)=[N+]([O-])c2cc([N+](=O)[O-])c(/C(Cl)=C/c3ccccc3)cc21 |  |  | inactive
